Data from patent US20090317364A1, “NOVEL COMPOSITIONS FOR PREVENTION AND TREATMENT OF MASTITIS AND METRITIS” (priority 2006, published 2009).

What was measured:
[1] = tested on: Staphylococcus. aureus; test: Lab trials 2a (in vitro) for synergy, components added in wells for diffusion; type: cell-based
Text: a) Lab trials 2a (in vitro) for synergy.

[2] = tested on: Staphylococcus. aureus; test: Lab trials 2b (in vitro) for synergy, components added on top of the culture; type: cell-based
Text: b) Lab trials 2b (in vitro) for synergy.

Peptidoglycan N-acetylmuramoylhydrolase [Lysozyme]
Inhibition zone diameter In cm for Staphylococcus. aureus [1]: 1.15 cm
Inhibition zone In diameter cm for Staphylococcus. aureus [2]: 1.1 cm
